Assay results published in patent US20090130707A1, “Methods of reducing the inhibitory effect of a redox active metal ion on the enzymatic hydrolysis of cellulosic material” (priority 2007, published 2009).
Like-named read-outs stand apart in the source and are kept apart here.

Tests used:
[1] = cited from earlier work; for Radius: ionic radii in crystals, 6-ligand coordination
[2] = tested on: Cellulolytic Enzyme Composition #1; experiment: mini-plate-scale AVICEL hydrolysis by Cellulolytic Enzyme Composition #1; format: biochemical, Trichoderma reesei; conditions: for Effect on hydrolysis (in words) / Effect on enzymatic cellulolysis: gain in initial rate / Effect on enzymatic cellulolysis: gain in extended hydrolysis extent / Effect on enzymatic cellulolysis: loss in initial rate / Effect on enzymatic cellulolysis: loss in extended hydrolysis extent: 10 mM; for Effect on enzymatic cellulolysis: gain in initial rate / Effect on enzymatic cellulolysis: gain in extended hydrolysis extent / Effect on enzymatic cellulolysis: loss in initial rate / Effect on enzymatic cellulolysis: loss in extended hydrolysis extent: 25 g AVICEL and 0.25 g enzyme per liter, pH 5, 50° C.; for Effect on enzymatic cellulolysis: gain in extended hydrolysis extent / Effect on enzymatic cellulolysis: loss in extended hydrolysis extent: after 4 days; for IC50: AVICEL hydrolysis, 0.2 to 2 mM inhibitor
Description: (§1) Various (biologically common) divalent metal cations with variable ionic radii were tested in 2.8 ml Deep Well Microplates (VWR International, West Chester, Pa., USA) (“mini-plate-scale”) containing 1 ml suspensions of 25 g of AVICEL® per liter in 50 mM sodium acetate pH 5 at 50° C. Cellulolytic Enzyme Composition #1 was added at 0.25 g per liter for each hydrolysis. The mini-plates were sealed at 160° C. for 2 seconds using an ABGENE® ALPS 300™ sealer (ABgene, Rochester, N.Y., USA). The sealed mini-plates were incubated at 50° C. in an INNOVA® 4080 incubator shaker at 150 rpm. Soluble reducing sugars were measured by HPLC as described in Example 30.
Iron-chelator complexes of variable size or redox property were tested for their ability to inhibit enzymatic hydrolysis of cellulose. […]

[3] = tested on: Cellulolytic Enzyme Composition #1; experiment: Pre-incubation of iron ion with AVICEL or enzyme, then AVICEL hydrolysis; format: biochemical, Trichoderma reesei
Description: To test whether Fe(II) affects cellulose or cellulase, 10 mM FeCl2 was pre-incubated with either 25 g of AVICEL® or 0.25 g of Cellulolytic Enzyme Composition #1 per liter of 50 mM sodium acetate pH 5 for three days. “Fe-pretreated” AVICEL® was washed and Cellulolytic Enzyme Composition #1 was gel-filtered using BioSpin 6 desalting columns (Bio-Rad, Hercules, Calif., USA) to remove residual Fe ion. Fe-pretreated AVICEL® was hydrolyzed with fresh Cellulolytic Enzyme Composition #1 or Cellulolytic Enzyme Composition #1 subjected to “FeCl2-less” pre-incubation and gel filtration. Fe-pretreated Cellulolytic Enzyme Composition #1 was applied to hydrolyze fresh AVICEL® or AVICEL® subjected to “FeCl2-less” pre-incubation and washing, in comparison with the hydrolysis of fresh AVICEL® ([…]) by fresh Cellulolytic Enzyme Composition #1 ([…]), with or without 10 mM FeCl2. All hydrolyses were performed using the “mini-plate-scale” hydrolysis reaction procedure described in Example 32, except for the change in cellulose or cellulase described above.
To test whether Fe(III) affected cellulose or cellulase, 10 mM FeCl3 was pre-incubated with either 25 g of AVICEL® or 0.25 g of Cellulolytic Enzyme Composition #1 per liter of 50 mM sodium acetate pH 5 for three days. All hydrolyses were performed using the “mini-plate-scale” hydrolysis reactions according to the procedure described in Example 32, except for the change in cellulose or cellulase described above.

[4] = tested on: Cellulolytic Enzyme Composition #1; experiment: mini-plate-scale PASC hydrolysis by Cellulolytic Enzyme Composition #1; format: biochemical, Trichoderma reesei; conditions: 10 mM; 2 g PASC and 0.01 g enzyme per liter
Description: as §1
In one series of “mini-scale” hydrolysis reactions performed according to the procedure described in Example 30, the effect of 1 mM to 10 mM FeSO4 was evaluated in the hydrolysis of AVICEL® by Cellulolytic Enzyme Composition #1. In a series of “mini-plate-scale” hydrolysis reactions performed according to the procedure described in Example 32, the effect of 1 mM to 10 mM FeSO4 was evaluated in the hydrolysis of PASC by Cellulolytic Enzyme Composition #1, except 2 g of PASC and 0.05 g Cellulolytic Enzyme Composition #1 per liter of 50 mM sodium acetate pH 5 were used.
The above study was extended to a range of concentration of Fe(II) and cellulose. In a series of “mini-plate-scale” hydrolysis reactions performed according to the procedure described in Example 32, except that 0.1 to 10 mM FeSO4, 0.6 to 4 g of PASC and 0.01 g of Cellulolytic Enzyme Composition #1 per liter of 50 mM sodium acetate pH 5 were used.

[5] = tested on: Cellulolytic Enzyme Composition #1; experiment: Pre-incubation of iron ion with PASC or enzyme, then PASC hydrolysis; format: biochemical, Trichoderma reesei
Description: The “pre-incubation” study was also performed for the hydrolysis of PASC. The experiments were similar to those described above, except 2 g of PASC, replacing AVICEL®, and 0.01 g of Cellulolytic Enzyme Composition #1 per liter of 50 mM sodium acetate pH 5, and 3 days pre-incubation were used. All hydrolyses were performed using the “mini-plate-scale” hydrolysis reaction according to the procedure described in Example 32, except for the change in cellulose or cellulase described above.

[6] = single-electron redox potential vs NHE
[7] = read-out: I50 estimated based on limited data
[8] = single-electron oxidation potential of iron-chelator complexes
[9] = 10 mM fresh salt, fresh AVICEL, fresh enzyme
[10] = 10 mM, pre-incubated three days with AVICEL
[11] = 10 mM, pre-incubated three days with Cellulolytic Enzyme Composition #1
[12] = fresh salt, PASC, enzyme fresh or buffer pre-incubated
[13] = pre-incubated 3 days with Cellulolytic Enzyme Composition #1

| Molecule | Radius [1] [Å] | E° [1, 6] [V] | Effect on hydrolysis (in words) [2] | Effect on enzymatic cellulolysis: loss in initial rate [2] | Effect on enzymatic cellulolysis: loss in extended hydrolysis extent [2] | IC50 ([2]; read-out: I50) [µM] | other results |
| --- | --- | --- | --- | --- | --- | --- | --- |
| [Ca+2].[Cl-].[Cl-] [Ca(II), CaCl2] | 1.00 | −0.96 | slight enhancement |  |  |  | Effect on enzymatic cellulolysis: gain in initial rate [2]: ~20% gain in initial rate, ~20% gain in extended hydrolysis extent; Effect on enzymatic cellulolysis: gain in extended hydrolysis extent [2]: ~20% gain in initial rate, ~20% gain in extended hydrolysis extent |
| O=S(=O)([O-])[O-].[Co+2] [Co(II), CoSO4] | 0.65 |  | slight or moderate inhibition | ~10% | no change |  | E° ([1]; 2-electron E° (in parenthesis)): (−0.28) V |
| [Cl][Cr]([Cl])[Cl] [Cr(III), CrCl3] | 0.62 | −0.407 | moderate | ~40% loss in initial rate, ~40% loss in extended hydrolysis extent | ~40% loss in initial rate, ~40% loss in extended hydrolysis extent |  | IC50 [2, 7]: > 10000 µM |
| O=S(=O)([O-])[O-].[Cu+2] [Cu(II), CuSO4] | 0.73 | 0.153 |  | ~90% | ~80% | 200 |  |
| O=C([O-])CN(CCN(CC(=O)[O-])CC(=O)[O-])CC(=O)[O-].[Fe+2].[Na+].[Na+] [Fe(II)Na2EDTA, FeNa2EDTA] |  |  |  | ~80% loss in initial rate, ~80% loss in extended hydrolysis extent | ~80% loss in initial rate, ~80% loss in extended hydrolysis extent |  | E° [1, 8]: (=Fe(III)NaEDTA's); IC50 [2, 7]: < 10000 µM |
| [Cl][Fe]([Cl])[Cl] [Fe(III), FeCl3] | 0.55 | 0.771 |  | ~90% loss in initial rate, ~90% loss in extended hydrolysis extent | ~90% loss in initial rate, ~90% loss in extended hydrolysis extent | 500 ± 400 | loss in extent of hydrolysis [3, 9]: ~90%; loss in initial rate [3, 9]: ~90%; loss in extent of hydrolysis [3, 10]: ~80%; loss in initial rate [3, 10]: ~80%; loss in extent of hydrolysis [3, 11]: ~20%; loss in initial rate [3, 11]: ~20%; Effect on enzymatic cellulolysis: loss in extended hydrolysis extent ([2]; listed as FeCl3): ~90%; Effect on enzymatic cellulolysis: loss in initial rate ([2]; listed as FeCl3): ~90%; loss of extent of hydrolysis after 4 days [4]: ~80%; loss of initial hydrolysis rate [4]: ~80%; loss in extent of hydrolysis [5, 12]: approximately 30%; loss in initial rate [5, 12]: ~70%; loss in extent of hydrolysis [5, 13]: no loss; loss in initial rate [5, 13]: ~50%; loss in extent of hydrolysis ([5]; pre-incubated 3 days with PASC): ~10%; loss in initial rate ([5]; pre-incubated 3 days with PASC): ~50% |
| O=C([O-])CN(CCN(CC(=O)[O-])CC(=O)[O-])CC(=O)[O-].[Fe+3].[Na+] [Fe(III)NaEDTA, FeNa(EDTA)] |  |  |  | ~10% | ~20% |  | E° [1, 8]: 0.13^2 V; IC50 [2, 7]: ~10000 µM |
| [Cl-].[Cl-].[Mg+2] [Mg(II), MgCl2] | 0.72 | −0.33 | slight enhancement |  |  |  | Effect on enzymatic cellulolysis: gain in initial rate [2]: ~20% gain in initial rate, ~20% gain in extended hydrolysis extent; Effect on enzymatic cellulolysis: gain in extended hydrolysis extent [2]: ~20% gain in initial rate, ~20% gain in extended hydrolysis extent |
| O=S(=O)([O-])[O-].[Mn+2] [Mn(II), MnSO4] | 0.67 |  | slight or moderate inhibition | ~10% | no change |  | E° ([1]; 2-electron E° (in parenthesis)): (−1.185) V; Effect on hydrolysis over concentration range ([2]; 0.1 to 10 mM): no effect |
| [Cl][Ni][Cl] [Ni(II), NiCl2] | 0.69 | −1.56 | slight or moderate inhibition | ~20% | ~10% |  |  |
| [Cl][Ru]([Cl])[Cl] [Ru(III), RuCl3] | 0.68 | 0.249 | pronounced | ~90% | ~80% | 150 |  |
| O=S(=O)([O-])[O-].[Zn+2] [Zn(II), ZnSO4] | 0.74 | −2.3 | slight or moderate inhibition | ~20% loss in initial rate, ~20% loss in extended hydrolysis extent | ~20% loss in initial rate, ~20% loss in extended hydrolysis extent |  |  |
| Fe(2,2′-bipyridyl)3Cl2 [Fe(II)(2,2′BP)2Cl2] |  |  |  | ~40% loss in initial rate, ~40% loss in extended hydrolysis extent | ~40% loss in initial rate, ~40% loss in extended hydrolysis extent | 20000 |  |
| Fe(2,2′-bipyridyl)3Cl3 [Fe(III)(2,2′BP)2Cl3] |  |  |  | ~100% loss in initial rate, ~100% loss in extended hydrolysis extent | ~100% loss in initial rate, ~100% loss in extended hydrolysis extent | 600 ± 100 | E° [1, 8]: 0.78 V |
| quinone [reference compound] |  |  |  |  |  |  | IC50 [2, 7]: ~5000 µM |
